# Data reported in patent US9624249B2, “Nucleoside kinase bypass compositions and methods” (Merck Sharp & Dohme Corp., priority 2013, dated 2017).
# pEC50, pIC50: −log10 of the molar value. Read-outs that look alike come from different tables or passages of the source.
# Tests used:
# [1] = system: hepatitis virus C (HCV) genotype 1a; test: HCV subgenomic replicon assay (RHEPTAQ), genotype 1a; format: cell-based
# From the text: (§1) Table 3 and Table 4 summarize the measured activities of these prodrugs as assessed in a subgenomic replicon assay (RHEPTAQ), against genotypes 1a, 1b and 2a.
# [2] = system: hepatitis virus C (HCV) genotype 1b; test: HCV subgenomic replicon assay (RHEPTAQ), genotype 1b; format: cell-based; details: for EC90: read-out: EC90(1b)
# From the text: as §1
# [3] = system: hepatitis virus C (HCV) genotype 2a; test: HCV subgenomic replicon assay (RHEPTAQ), genotype 2a; format: cell-based
# From the text: as §1
# Tox: EdU/CellCount CC50 = format: cell-based
# HIV-1 (H9IIIB virus) = test: Viking assay: multiple round HIV-1 infection assay in MT4-GFP cells; format: cell-based
# Procedure: Assessing Antiviral Potency in a Multiple Round HIV-1 Infection Assay
# The antiviral activity of the tenofovir prodrugs was assessed in a Viking assay performed as follows. HIV-1 replication was monitored using MT4-gag-GFP clone D3 (hereafter designate MT4-GFP), which are MT-4 cells modified to harbor a GFP reporter gene, the expression of which is dependent on the HIV-1 expressed proteins tat and rev. Productive infection of an MT4-GFP cell with HIV-1 results in GFP expression approximately 24 h post-infection.
# MT4-GFP cells were maintained at 37° C./5% CO2/90% relative humidity in RPMI 1640 supplemented with 10% fetal bovine serum, 100 U/ml penicillin/streptomycin, and 400 μg/ml G418 to maintain the reporter gene. For infections, MT4-GFP cells were placed in the same medium lacking G418 and infected overnight with H9IIIB virus at an approximate multiplicity of infection of 0.01 in the same incubation conditions. Cells were then washed and resuspended in either RPMI 1640 containing 10% normal human serum at 1.6×10^5 cells/mL (10% NHS conditions) or in 100% normal human serum at 2×10^5 cells/mL (100% NHS conditions). Compound plates were prepared by dispensing compounds dissolved in DMSO into wells of 384 well poly D lysine-coated plates (0.2 μl/well) using an ECHO acoustic dispenser. Each compound was tested in a 10 point serial 3-fold dilution (typical final concentrations: 4.2 μM-0.21 nM). Controls included no inhibitor (DMSO only) and a combination of three antiviral agents (efavirenz, indinavir, and the integrase strand transfer inhibitor N1-ethyl-N1-((7S,10R)-2-((4-fluorobenzyl)-carbamoyl)-3-hydroxy-7-methoxy-4-oxo-4,6,7,8,9,10-hexahydropyrimido-[1,2-a]azepin-10-yl)-N2,N2-dimethyloxalamide at final concentrations of 4 μM each). Cells were added (50 μL/well) to compound plates and the infected cells were maintained at 37° C./5% CO2/90% relative humidity.
# Infected cells were quantified at two time points, ˜48 h and ˜72 h post-infection, by counting the number of green cells in each well using an Acumen eX3 scanner. The increase in the number of green cells over ˜24 h period gives the reproductive ratio, R0, which is typically 5-15 and has been shown experimentally to be in logarithmic phase (data not shown) Inhibition of R0 is calculated for each well, and IC50s determined by non-linear 4-parameter curve fitting.
# HCV GT1b = details: Cho et al. 2012, Table 1; cited from earlier work
# HIV-1 = details: HIV-1, PBMCs; cited from earlier work
# [4] = Human immunodeficiency virus 1, read-out: Viking IP
# [5] = Hepatitis C virus, RHEPTAQ replicon, genotype 1a; read-out: EC50(1a)
# [6] = Hepatitis C virus, RHEPTAQ replicon, genotype 1a; read-out: EC90(1a)
# [7] = Hepatitis C virus, RHEPTAQ replicon, genotype 1b, read-out: EC50(1b)
# [8] = Hepatitis C virus, RHEPTAQ replicon, genotype 1b
# [9] = Hepatitis C virus, RHEPTAQ replicon, genotype 2a, read-out: EC90(2a)
# [10] = RHEPTAQ replicon, genotype 2a, read-out: EC50(2a)
compound,measurement,setting,value
"C[C@@]1(O)[C@@H]2OP(=O)(OC3CSSC[C@@H]3OCc3ccccc3)OCC2O[C@H]1n1ccc(=O)[nH]c1=O (single isomer, unassigned) [drawing 112]",pEC50,"[1]; Hepatitis C virus, Table 4, genotype 1a; read-out: Replicon: EC50 (1a)",7.15
same,pEC50,"[2]; Hepatitis C virus, Table 4, genotype 1b, read-out: Replicon: EC50 (1b)",6.96
same,pEC50,"[3]; Hepatitis C virus, Table 4, genotype 2a, read-out: Replicon: EC50 (2a)",7.05
same,CC50,"Tox: EdU/CellCount CC50; CellCount readout, read-out: Tox: CellCount CC50",8.5 µM
same,CC50,"Tox: EdU/CellCount CC50; EdU readout, read-out: Tox: EdU CC50",4.1 µM
C[C@H](Cn1cnc2c(N)ncnc21)OCP(=O)(Oc1cccc(F)c1)OC1CSSC[C@@H]1OCc1ccccc1 (stereo partly shown) [Entry 3],pIC50,HIV-1 (H9IIIB virus); [4],6.21
same,CTG LD50,CTG LD50 (cytotoxicity),>42.02 µM
"C[C@@]1(O)[C@@H]2OP(=S)(OC3CSSC[C@@H]3OCc3ccccc3)OCC2O[C@H]1n1ccc(=O)[nH]c1=O (single isomer, unassigned) [drawing 110 isomer 1 and 2]",pEC50,"[1]; read-out: EC50(1a); RHEPTAQ replicon, genotype 1a",5.40
same,EC90,"[1]; read-out: EC90(1a); RHEPTAQ replicon, genotype 1a",8 µM
C[C@H](Cn1cnc2c(N)ncnc21)OCP(=O)(Oc1ccccc1)OC1CSSC[C@@H]1OCc1ccccc1 (stereo partly shown) [Entry 1],pIC50,HIV-1 (H9IIIB virus); [4],5.90
same,CTG LD50,CTG LD50 (cytotoxicity),>8.403 µM
C#CCO[C@H]1CSSCC1OP1(=O)OCC2O[C@@H](n3ccc4c(N)ncnc43)[C@](C)(O)[C@@H]2O1 (stereo partly shown),pEC50,[1]; [5],6.80
same,EC90,[1]; [6],0.991 µM
same,pEC50,[2]; [7],7.11
same,EC90,[2]; [8],0.318 µM
same,pEC50,"[3]; Hepatitis C virus, read-out: EC50(2a), RHEPTAQ replicon, genotype 2a",6.87
same,EC90,"[3]; Hepatitis C virus, read-out: EC90(2a), RHEPTAQ replicon, genotype 2a",0.115 µM
Cc1ccccc1OP(=O)(CO[C@H](C)Cn1cnc2c(N)ncnc21)OC1CSSC[C@@H]1OCc1ccccc1 (stereo partly shown) [Entry 10],pIC50,HIV-1 (H9IIIB virus); [4],5.53
same,CTG LD50,CTG LD50 (cytotoxicity),>42.02 µM
"COCCOCCOCCO[C@H]1CSSCC1OP1(=O)OCC2O[C@@H](n3ccc(=O)[nH]c3=O)[C@](C)(O)[C@@H]2O1 (single isomer, unassigned) [drawing 111 isomer 1 and 2]",pEC50,[1]; [5],5.40
same,EC90,[1]; [6],9 µM
same,pEC50,[2]; [7],5.70
same,EC90,[2]; [8],8 µM
same,EC90,[3]; [9],21 µM
same,pEC50,[3]; [10],5.22
C[C@H](Cn1cnc2c(N)ncnc21)OCP(=O)(O)OC1CSSC[C@@H]1OCc1ccccc1 (stereo partly shown) [Entry 15],pIC50,"HIV-1 (H9IIIB virus); Human immunodeficiency virus 1, inhibition of reproductive ratio R0, MT4-GFP cells infected with H9IIIB, serum condition not stated, read-out: Viking IP",< 5.08
COc1ccccc1OP(=O)(CO[C@H](C)Cn1cnc2c(N)ncnc21)OC1CSSC[C@@H]1OCc1ccccc1 (stereo partly shown) [Entry 12],pIC50,HIV-1 (H9IIIB virus); [4],5.81
same,CTG LD50,CTG LD50 (cytotoxicity),>39.78 µM
COCCOCCOCCO[C@H]1CSSCC1OP1(=O)OCC2O[C@@H](n3ccc4c(N)ncnc43)[C@](C)(O)[C@@H]2O1 (stereo partly shown),pEC50,[1]; [5],6.00
same,EC90,[1]; [6],3.3 µM
same,pEC50,[2]; [7],6.74
same,EC90,[2]; [8],0.448 µM
same,pEC50,"[3]; Hepatitis C virus, RHEPTAQ replicon, genotype 2a, read-out: EC50(2a)",6.60
same,EC90,[3]; [9],0.896 µM
COc1cccc(OP(=O)(CO[C@H](C)Cn2cnc3c(N)ncnc32)OC2CSSC[C@@H]2OCc2ccccc2)c1 (stereo partly shown) [Entry 13],pIC50,HIV-1 (H9IIIB virus); [4],5.74
same,CTG LD50,CTG LD50 (cytotoxicity),>8.403 µM
C[C@@]1(O)[C@H](O)[C@@H](COP(=O)(O)OP(=O)(O)OP(=O)(O)O)O[C@H]1n1ccc(=O)[nH]c1=O [triphosphate 2′-C-Me-U],pEC50,HCV GT1b,5.88
Cc1cccc(OP(=O)(CO[C@H](C)Cn2cnc3c(N)ncnc32)OC2CSSC[C@@H]2OCc2ccccc2)c1 (stereo partly shown) [Entry 8],pIC50,HIV-1 (H9IIIB virus); [4],5.95
same,CTG LD50,CTG LD50 (cytotoxicity),>42.02 µM
"COCCOCCOCCO[C@H]1CSSCC1OP1(=O)OCC2O[C@@H](n3ccc(=O)[nH]c3=O)[C@](C)(O)[C@@H]2O1 (single isomer, unassigned) [drawing 111 isomer 3 and 4]",pEC50,"[1]; RHEPTAQ replicon, genotype 1a; read-out: EC50(1a)",5.15
same,EC90,"[1]; RHEPTAQ replicon, genotype 1a; read-out: EC90(1a)",16 µM
same,pEC50,"[2]; RHEPTAQ replicon, genotype 1b, read-out: EC50(1b)",5.40
same,EC90,"[2]; RHEPTAQ replicon, genotype 1b",12 µM
same,pEC50,[3]; [10],4.85
same,EC90,"[3]; RHEPTAQ replicon, genotype 2a, read-out: EC90(2a)",37 µM
C[C@H](Cn1cnc2c(N)ncnc21)OCP(=O)(O)O [tenofovir],pEC50,HIV-1,5.92
